Data published in patent publication US20260356834A1, “ANTICONVULSIVE COMPOUNDS AND USES THEREOF” (Jazz Pharmaceuticals Research UK Limite, priority 2023, published 2026).
“And” between values parts separate entries of the source, which are not always exact repeats. Identical values can stand only once. Marks after values point to notes of the source that are not given here.

Key:
DBA/2 mice [1] = details: De Sarro et al., 2017; cited from earlier work
RjOrl: Swiss mice [2] = assay: mouse 6 Hz (44 mA) model of partial seizures; assay type: in vivo; details: 200 mg/kg i.p., 30 min
Source text: The 6 Hz (44 mA) model of partial seizures, which detects anticonvulsant activity, follows that described by Brown et al. 1953.
[…] A decrease in forelimb clonus score is indicative of protection from seizure and an anticonvulsive effect.
When conducted at a 44 mA stimulus intensity in mice, the 6 Hz test can differentiate compounds with potential for the treatment of focal-onset seizures that are often resistant to current anti-epileptic drugs.
Male RjOrl: Swiss mice (Janvier Labs, 53940 Le Genest-Saint-Isle, France), 5 weeks old, weighing 27-38 g at the beginning of the experiment. Animals were acclimatized to the Test Facility for at least 5 days after delivery and randomly housed in groups of 5 to 8 in macrolon cages on wood litter with free access to food and water.
(§1) The animal house was maintained under artificial lighting (12 hours) between 7:00 and 19:00 in a controlled ambient temperature of 22±2 °C and relative humidity between 30-70%.
Before transcorneal stimulation, a drop of tetracaine solution (1%) was applied on each eye of the mouse for local anesthesia. Between 1-10 minutes later and at the designated pre-treatment (see below), the mice were administered a rectangular current (44 mA, rectangular pulse: 0.2 ms pulse width, 3 s duration, (6 Hz) via corneal electrodes connected to a constant current shock generator (Ugo Basile: type 7801).
The results for the number of seizures as reflected by forelimb clonus were recorded immediately after current administration. Forelimb clonus was scored as absent (0=no forelimb clonus), mild (1=clonus with one forelimb) and strong (2=clonus with both forelimbs). The experimenters were blinded to the treatment. […]
The administration volume was 10 mL/kg.
Due to the number of animals tested, the experiment was divided in 2 sub-experiments on 2 consecutive days with equivalent numbers of mice per group and per sub-experiment.
Data were discrete values so considered to be non-normally distributed based on validation data, therefore non-parametric tests were utilized. Quantitative data (scores) with the test substance were analyzed by comparing test compound-treated groups with the 1:2:17 vehicle control using Kruskal-Wallis test with Dunn's multiple comparisons test when the Kruskal-Wallis test was significant. Quantitative data with the reference substance were analyzed using Mann-Whitney U test as compared to saline vehicle.

C57BL/6J mice = assay: mouse maximal electroshock seizure threshold model (MEST); assay type: in vivo; details: 150 mg/kg i.p., 30 min
Experimental: Vehicle=1:2:17 ethanol:Solutol® (Kolliphor® HS 15):saline: 1 mL of ethanol and 2 mL of solutol were warmed to 60 °C and 17 mL of 0.9% saline was added slowly. […]
Vehicle=0.5% HPMC and 0.1% Tween 80:0.5% HPMC and 0.1% Tween 80 in water.

RjOrl: Swiss mice [3] = assay: mouse 6 Hz (44 mA) model of partial seizures; assay type: in vivo; details: 200 mg/kg i.p., 30 min; vs vehicle (HPMC)
DBA/2 mice [4] = assay: mouse audiogenic seizure test; assay type: in vivo; details: 180 mg/kg i.p., 30 min
Source text: The Audiogenic Seizure Test, which detects anticonvulsant activity, follows that described by Durmüller et al., 1993. Mice of the DBA/2 strain undergo an age-dependent sequence of convulsions (wild-running, clonic convulsion, tonic convulsion and respiratory arrest) within 60 seconds of exposure to a loud sound of 110-120 dB. The type of convulsions are consistent with aspects of generalised seizure in humans.
Male DBA/2 mice (3-4 weeks old) were supplied by Janvier Labs (53940 Le Genest-Saint-Isle, France); weight range 6-13 g at the beginning of the experiment. Animals were acclimatized to the Test Facility for 1 day after delivery and randomly housed in groups of 5 in macrolon cages on wood litter with free access to food and water.
as §1
Mice were individually transferred (at 3-5 minutes intervals) from the preparation room into an adjacent experimental room and body temperature was measured using a rectal thermometer (Digital Laboratory Thermometer: Model BAT-12). Immediately after, they were placed in a Plexiglas jar (Diameter=40 cm; Height=35 cm) mounted with an electric bell (110-120 dB, supplier Leroy Merlin, France). Upon activating the bell, the occurrences and latencies to wild running fits, clonic and tonic seizures were measured. Deaths were also recorded. The bell was activated until a tonic seizure occurred, or for a maximum of 60 seconds.
The experiment included groups of 10 mice per group. Experimenters were only partially blinded to treatment group as pre-treatment times were different.
The test substance was evaluated at various doses, administered i.p. (10 ml/kg) 15 or 30 minutes before the test, and compared with a vehicle control group.
Due to the number of animals tested, the experiment was divided in 2 sub-experiments on 2 separate days (7 days apart) with 5 mice per group in each sub-experiment.
Data were tested for normality using d'Agostino-Pearson Test and found to not follow a normal distribution. Statistical outliers were not identified or removed because no behavioural outliers were identified. Quantitative data (latencies) with the test substance were analyzed by comparing treated groups with vehicle control using Kruskal-Wallis test followed by Dunn's multiple comparisons test. Quantitative data with the reference substance were analyzed using Mann-Whitney U test. Quantal data (frequencies) were analyzed by comparing treated groups with vehicle control using Fisher's Exact Probability test.

CB2 receptors = details: cited from earlier work
[5] = in vivo; cited from earlier work
CB1 = details: cited from earlier work
RjOrl: Swiss mice [6] = details: 44 mA; Klein et al., 2017; cited from earlier work

CCCC(CCC)C(=O)[O-].[Na+] [Sodium Valproate, sodium valproate, reference compound]
protection from clonic convulsions, tonic convulsions and respiratory arrest (DBA/2 mice [1]): protect DBA/2 mice from clonic convulsions, tonic convulsions and respiratory arrest
Change from vehicle 1 (forelimb clonus) (RjOrl: Swiss mice [2]; vs vehicle 1 (saline)): −82%***
Change from vehicle 2 (forelimb clonus) (RjOrl: Swiss mice [2]; vs vehicle 2 (1:2:17 ethanol:Kolliphor HS15:saline)): −89%***
CC50 +/− SEM (C57BL/6J mice; 1:1:18 ethanol:Kolliphor EL:saline): 139.2 ± 2.1 mA
CC50 +/− SEM (C57BL/6J mice; 1:2:17 ethanol:Solutol:saline): 104.2 ± 1.0 mA
CC50 +/− SEM (C57BL/6J mice; study with HPMC vehicle): >300.0 mA and 215.8 ± 30.1 mA
Change from vehicle (CC50) (C57BL/6J mice; vs 1:1:18 ethanol:Kolliphor EL:saline vehicle): 457%^###
Change from vehicle (CC50) (C57BL/6J mice; vs 1:2:17 ethanol:Solutol:saline vehicle): 346%^###
Change from vehicle (CC50) (C57BL/6J mice; vs HPMC vehicle): >1043%*** and 714%***
Change from vehicle (forelimb clonus) (RjOrl: Swiss mice [3]): −60%***
Clonic convulsion - presence, % (DBA/2 mice [4]): 30%
Tonic convulsion - presence, % (DBA/2 mice [4]): 0%
Wild running - presence, % (DBA/2 mice [4]): 30%
latencies to clonic convulsions (significance in words) (DBA/2 mice [4]): significantly increased
latencies to tonic convulsions (significance in words) (DBA/2 mice [4]): significantly increased
latencies to wild running (significance in words) (DBA/2 mice [4]): significantly increased
number of mice displaying clonic convulsions (significance in words) (DBA/2 mice [4]): significantly decreased
number of mice displaying tonic convulsions (significance in words) (DBA/2 mice [4]): significantly decreased
number of mice displaying wild running (significance in words) (DBA/2 mice [4]): significantly decreased
Clonic convulsion - presence, Total (DBA/2 mice [4]; number of mice, n = 10): 1
Tonic convulsion - presence, Total (DBA/2 mice [4]; number of mice, n = 10): 0
Wild running - presence, Total (DBA/2 mice [4]; number of mice, n = 10): 1

C=C(C)[C@@H]1CCC(C)=C[C@H]1c1c(O)cc(CCCCC)cc1O [CBD, cannabidiol]
binding to CB2 receptors (CB2 receptors): does not bind
psychotropic effects associated with cannabis [5]: does not induce the psychotropic effects
binding to CB1 (CB1): does not bind
anticonvulsive effects in the 6 Hz test (RjOrl: Swiss mice [6]): exhibit anticonvulsive effects
